Where “and” joins values, the source holds several entries; their conditions need not be identical. Equal entries are not always repeated. Entries after “also recorded” stand apart in the source; their conditions may differ. Where two headings read alike, the source gives them in different places.
Key:
[1] = system: human cytomegalovirus (HCMV), strain AD-169; assay: Antiviral test (plaque reduction) versus HCMV, strain AD-169, in MRC-5 cells; format: cell-based
[2] = system: HCMV, strain C8805-37 (DHPG-resistant); assay: microbe, parasite or virus in culture; format: cell-based, human cytomegalovirus; settings: for inhibition at 10 µg/mL: Human betaherpesvirus 5, MRC5, 96 h, read-out: Percent Inhibition Compared to Controls; for inhibition at 0.01 µg/mL / inhibition at 0.032 µg/mL / inhibition at 0.1 µg/mL / inhibition at 0.32 µg/mL / inhibition at 1 µg/mL / inhibition at 3.2 µg/mL: Human betaherpesvirus 5, MRC5, read-out: Percent Inhibition Compared to Controls
[3] = Human betaherpesvirus 5, AD169, MRC5, read-out: % Reduction
[4] = Example 3, cells exposed 4 days
[5] = Table 9 summary, two values = two experiments
[6] = Table 10 summary, DHPG resistant HCMV test

Question: `O=C(O)c1cc(O)c2c(c1)C(=O)c1cccc(O)c1C2=O` [Rhein, rhein] was tested. Which inhibition at 3.2 µg/mL [1, 3] did it give?
Answer: Its inhibition at 3.2 µg/mL is 100%.

Question: And the CD50 (MRC-5 cells; [4])?
Answer: Its CD50 is >10 µg/mL.

Question: And the CD50 (MRC-5 cells; Example 5)?
Answer: Its CD50 is 3.4 µg/mL.

Question: What about the CD50 (MRC-5 cells; Example 7) of the same compound?
Answer: The CD50 was 2.9 µg/mL.

Question: What about the CD50 (MRC-5 cells; [5]) of the same compound?
Answer: Its CD50 is 3.4 µg/mL and 2.9 µg/mL.

Question: What about the CD50 (MRC-5 cells; [6]) of the same compound?
Answer: The CD50 was >10 µg/mL.

Question: What about the inhibition at 10 µg/mL [2] of the same compound?
Answer: The inhibition at 10 µg/mL was 100%.

Question: What about the inhibition at 0.01 µg/mL [2] of the same compound?
Answer: Its inhibition at 0.01 µg/mL is 0%.

Question: What about the inhibition at 0.032 µg/mL [2] of the same compound?
Answer: Its inhibition at 0.032 µg/mL is 0%.

Question: What about the inhibition at 0.1 µg/mL [2] of the same compound?
Answer: Its inhibition at 0.1 µg/mL is 38%.

Question: And the inhibition at 0.32 µg/mL [2]?
Answer: Its inhibition at 0.32 µg/mL is 0%.

Question: And the inhibition at 1 µg/mL [2]?
Answer: The inhibition at 1 µg/mL was 49%.

Question: What about the inhibition at 3.2 µg/mL [2] of the same compound?
Answer: The inhibition at 3.2 µg/mL was 100%.

Question: Which results are given for `Cc1cc(O)c2c(c1)Cc1cc(O)cc(O)c1C2=O` [Emodin Anthrone, emodin anthrone]?
Answer: Percent Inhibition of Plaque Numbers (Compared to Virus Controls) ([1]; 3.2 μg/ml, Example 2): toxic; Percent Inhibition of Plaque Numbers (Compared to Virus Controls) ([1]; 10 μg/ml, Example 2, ethanol stock (protohypericin in DMSO), cells exposed 6 or more days): toxic; inhibition at 0.01 µg/mL ([1]; Human betaherpesvirus 5, AD169, MRC5, 0.01 μg/ml, Example 2, read-out: Percent Inhibition of Plaque Numbers (Compared to Virus Controls)): 0%; inhibition at 0.032 µg/mL ([1]; Human betaherpesvirus 5, AD169, MRC5, 0.032 μg/ml, Example 2, read-out: Percent Inhibition of Plaque Numbers (Compared to Virus Controls)): 0%; inhibition at 0.1 µg/mL ([1]; Human betaherpesvirus 5, AD169, MRC5, 0.1 μg/ml, Example 2, read-out: Percent Inhibition of Plaque Numbers (Compared to Virus Controls)): 0%; inhibition at 0.32 µg/mL ([1]; Human betaherpesvirus 5, AD169, MRC5, 0.32 μg/ml, Example 2, read-out: Percent Inhibition of Plaque Numbers (Compared to Virus Controls)): 0%; inhibition at 1 µg/mL ([1]; Human betaherpesvirus 5, AD169, MRC5, 1.0 μg/ml, Example 2, read-out: Percent Inhibition of Plaque Numbers (Compared to Virus Controls)): 0%; Activity in initial screening against HCMV in vitro ([1]; initial screening, in words): not active; CD50 (MRC-5 cells; human, 4 days): 2.6 µg/mL; Activity against DHPG resistant HCMV strain [2]: shows activity; also recorded: active; Percent Inhibition Compared to Controls [2]: toxic; inhibition at 0.01 µg/mL [2]: 0%; inhibition at 0.032 µg/mL [2]: 0%; inhibition at 0.1 µg/mL [2]: 0%; inhibition at 0.32 µg/mL [2]: 0%; inhibition at 1 µg/mL [2]: 24%; inhibition at 3.2 µg/mL [2]: 100%

Question: What does the source list for `O=C1c2ccccc2C(=O)c2c1ccc(O)c2O` [Alizarin, alizarin]?
Answer: Activity against HCMV [1]: show activity; also recorded: active; inhibition at 0.01 µg/mL [1, 3]: 0%; inhibition at 0.032 µg/mL [1, 3]: 0%; inhibition at 0.1 µg/mL [1, 3]: 0%; inhibition at 0.32 µg/mL [1, 3]: 0%; inhibition at 1 µg/mL [1, 3]: 0%; inhibition at 3.2 µg/mL [1, 3]: 0%; inhibition at 10 µg/mL [1, 3]: 96%; CD50 (MRC-5 cells; [4]): >10 µg/mL; CD50 (MRC-5 cells; Example 5): > 10 µg/mL and ~13 µg/mL; CD50 (MRC-5 cells; [5]): >10 µg/mL; CD50 (MRC-5 cells; [6]): >10 µg/mL; inhibition at 10 µg/mL [2]: 97%; inhibition at 0.01 µg/mL [2]: 0%; inhibition at 0.032 µg/mL [2]: 19%; inhibition at 0.1 µg/mL [2]: 0%; inhibition at 0.32 µg/mL [2]: 0%; inhibition at 1 µg/mL [2]: 21%; inhibition at 3.2 µg/mL [2]: 75%

Question: For `O=C1c2cccc(O)c2C(=O)c2c(O)cccc21` [1,8-Dihydroxyanthraquinone, 1,8-dihydroxyanthraquinone], which “Number of Plaques” value ([1]; 0.01 μg/ml, Example 6) is on record?
Answer: Its value is 10.

Question: What about the “Number of Plaques” value ([1]; 0.01 μg/ml, Example 7) of the same compound?
Answer: Its value is 26.

Question: What about the “Number of Plaques” value ([1]; 0.032 μg/ml, Example 6) of the same compound?
Answer: The value was 9.

Question: What about the “Number of Plaques” value ([1]; 0.032 μg/ml, Example 7) of the same compound?
Answer: Its value is 20.

Question: What about the “Number of Plaques” value ([1]; 0.1 μg/ml, Example 6) of the same compound?
Answer: Its value is 10.

Question: What about the “Number of Plaques” value ([1]; 0.1 μg/ml, Example 7) of the same compound?
Answer: The value was 22.

Question: And the “Number of Plaques” value ([1]; 0.32 μg/ml, Example 6)?
Answer: Its value is 12.

Question: What about the “Number of Plaques” value ([1]; 0.32 μg/ml, Example 7) of the same compound?
Answer: The value was 44.

Question: What about the “Number of Plaques” value ([1]; 1.0 μg/ml, Example 6) of the same compound?
Answer: Its value is 10.

Question: What about the “Number of Plaques” value ([1]; 1.0 μg/ml, Example 7) of the same compound?
Answer: The value was 35.

Question: And the “Number of Plaques” value ([1]; 3.2 μg/ml, Example 6)?
Answer: The value was 8.

Question: And the “Number of Plaques” value ([1]; 3.2 μg/ml, Example 7)?
Answer: The value was 42.

Question: And the “Number of Plaques” value ([1]; 10.0 μg/ml, Example 6)?
Answer: The value was 12.

Question: And the “Number of Plaques” value ([1]; 10.0 μg/ml, Example 7)?
Answer: Its value is 30.

Question: And the inhibition at 0.01 µg/mL ([1]; Human betaherpesvirus 5, AD169, MRC5, 0.01 μg/ml, Example 6, read-out: % Reduction)?
Answer: The inhibition at 0.01 µg/mL was 0%.

Question: And the inhibition at 0.01 µg/mL ([1]; Human betaherpesvirus 5, AD169, MRC5, 0.01 μg/ml, Example 7, read-out: % Reduction)?
Answer: Its inhibition at 0.01 µg/mL is 0%.

Question: What about the inhibition at 0.032 µg/mL ([1]; Human betaherpesvirus 5, AD169, MRC5, 0.032 μg/ml, Example 6, read-out: % Reduction) of the same compound?
Answer: Its inhibition at 0.032 µg/mL is 0%.

Question: What about the inhibition at 0.032 µg/mL ([1]; Human betaherpesvirus 5, AD169, MRC5, 0.032 μg/ml, Example 7, read-out: % Reduction) of the same compound?
Answer: Its inhibition at 0.032 µg/mL is 37%.

Question: And the inhibition at 0.1 µg/mL ([1]; Human betaherpesvirus 5, AD169, MRC5, 0.1 μg/ml, Example 6, read-out: % Reduction)?
Answer: Its inhibition at 0.1 µg/mL is 0%.

Question: What about the inhibition at 0.1 µg/mL ([1]; Human betaherpesvirus 5, AD169, MRC5, 0.1 μg/ml, Example 7, read-out: % Reduction) of the same compound?
Answer: The inhibition at 0.1 µg/mL was 31%.

Question: What about the inhibition at 0.32 µg/mL ([1]; Human betaherpesvirus 5, AD169, MRC5, 0.32 μg/ml, Example 6, read-out: % Reduction) of the same compound?
Answer: Its inhibition at 0.32 µg/mL is 0%.

Question: What about the inhibition at 0.32 µg/mL ([1]; Human betaherpesvirus 5, AD169, MRC5, 0.32 μg/ml, Example 7, read-out: % Reduction) of the same compound?
Answer: The inhibition at 0.32 µg/mL was 0%.

Question: And the inhibition at 1 µg/mL ([1]; Human betaherpesvirus 5, AD169, MRC5, 1.0 μg/ml, Example 6, read-out: % Reduction)?
Answer: The inhibition at 1 µg/mL was 0%.

Question: What about the inhibition at 1 µg/mL ([1]; Human betaherpesvirus 5, AD169, MRC5, 1.0 μg/ml, Example 7, read-out: % Reduction) of the same compound?
Answer: The inhibition at 1 µg/mL was 0%.

Question: And the inhibition at 3.2 µg/mL ([1]; Human betaherpesvirus 5, AD169, MRC5, 3.2 μg/ml, Example 6, read-out: % Reduction)?
Answer: The inhibition at 3.2 µg/mL was 0%.

Question: And the inhibition at 3.2 µg/mL ([1]; Human betaherpesvirus 5, AD169, MRC5, 3.2 μg/ml, Example 7, read-out: % Reduction)?
Answer: The inhibition at 3.2 µg/mL was 0%.

Question: What about the inhibition at 10 µg/mL ([1]; Human betaherpesvirus 5, AD169, MRC5, 10.0 μg/ml, Example 6, read-out: % Reduction) of the same compound?
Answer: The inhibition at 10 µg/mL was 0%.

Question: What about the inhibition at 10 µg/mL ([1]; Human betaherpesvirus 5, AD169, MRC5, 10.0 μg/ml, Example 7, read-out: % Reduction) of the same compound?
Answer: Its inhibition at 10 µg/mL is 0%.

Question: And the “Activity against HCMV” value ([1]; statement in words on the plaque reduction results, listed as 1,8-dihydroxy anthraquinone)?
Answer: The value was “Slight activity”.

Question: And the “Activity against HCMV” value ([1]; statement in words on the plaque reduction results, listed as 1,8-dihydroxyanthraquinone)?
Answer: Its value is “show activity; also recorded: activity but at lower levels”.

Question: What about the CD50 (MRC-5 cells; human) of the same compound?
Answer: Its CD50 is >10 µg/mL.

From patent US6686393B1, “Pharmaceutical compositions having antiviral activity against human cytomegalovirus” (Murdock International Corporation, priority 1990, dated 2004)
